Measured values published in article PMC7297445, “Pharmacokinetic/Pharmacodynamic Determination and Preclinical Pharmacokinetics of the β-Lactamase Inhibitor ETX1317 and Its Orally Available Prodrug ETX0282” (ACS Infectious Diseases, 2020).

Legend:
E. coli ARC2687 [1] = assay: MIC, broth microdilution (CLSI); type: cell-based; conditions: Escherichia coli, ARC2687; combination at 1:2 ratio cefpodoxime:ETX1317, MIC of CPD
Method: (§1) MICs were determined utilizing a 1:2 ratio of cefpodoxime:ETX1317. […] The isolates utilized in the present study (Table 1) were broadly insensitive to CPD, presumably due to the presence of ESBLs and carbapenemases expressed in these strains. The addition of ETX1317 restored CPD activity to ≤1 μg/mL across all the tested isolates.
(§2) The MIC of each isolate was determined using the broth microdilution method following CLSI guidelines of document M07-A7 (CLSI M07-A7).

E. coli ARC4419 = assay: MIC, broth microdilution (CLSI); type: cell-based; conditions: Escherichia coli, combination at 1:2 ratio cefpodoxime:ETX1317, MIC of CPD
Method: as §1, §2

E. coli NMC101 = assay: MIC, broth microdilution (CLSI); type: cell-based; conditions: Escherichia coli, combination at 1:2 ratio cefpodoxime:ETX1317, MIC of CPD
Method: as §1, §2

K. pneumoniae ARC4420 = assay: MIC, broth microdilution (CLSI); type: cell-based; conditions: Klebsiella pneumoniae, combination at 1:2 ratio cefpodoxime:ETX1317, MIC of CPD
Method: as §1, §2

K. pneumoniae ARC4486 [2] = assay: MIC, broth microdilution (CLSI); type: cell-based; conditions: Klebsiella pneumoniae, combination at 1:2 ratio cefpodoxime:ETX1317, MIC of CPD
Method: as §1, §2

K. pneumoniae ARC4488 [3] = assay: MIC, broth microdilution (CLSI); type: cell-based; conditions: Klebsiella pneumoniae, ARC4488; combination at 1:2 ratio cefpodoxime:ETX1317, MIC of CPD
Method: as §1, §2

K. pneumoniae ARC5118 = assay: MIC, broth microdilution (CLSI); type: cell-based; conditions: Klebsiella pneumoniae, ARC5118; combination at 1:2 ratio cefpodoxime:ETX1317, MIC of CPD
Method: as §1, §2

E. coli ARC2687 [4] = assay: Hollow-fiber infection model (HFIM), dose fractionation; type: cell-based; conditions: with CPD
Method: (§3) The PK/PD driver of ETX1317 was assessed in the presence of CPD in both hollow-fiber[28]−[31] and chemostat[32]in vitro infection model systems. In all cases, CPD was administered q12h via a 2 h infusion and eliminated with a 2 h half-life, with the concentration of drug exceeding the MIC (the MIC of CPD in the presence of ETX1317 at a 1:2 ratio) for 50% of the dosing interval for each strain. Representative Emax plots are shown graphically for Escherichia coli ARC2687 in the hollow-fiber model and Klebsiella pneumoniae ARC4420 in the chemostat system (Figure 2). […] This could partially be attributed to the distribution of the concentration ranges utilized for the hollow-fiber infection model (HFIM) where most of the data scatter occurred in the efficacious dose range for lower MIC strains. It is important to note that initial evaluation of K. pneumoniae ARC4420 and ARC5118 was completed in the HFIM but rapid degradation of CPD, presumably through accumulation of β-lactamases in the extra-capillary space of the cartridge precluded a reliable assessment of the PK/PD driver with these strains in this model.[32] […] In both the HFIM and chemostat models the optimum critical threshold of ETX1317 was established through iterative Emax fitting of a range of ETX1317 concentrations from 0.5× to 2× the CPD:ETX1317 MIC value. In the HFIM, %Time > ETX1317 CT of 2× MIC provided the highest correlation to observed activity which appeared to be independent to the apparent intrinsic activity of ETX1317 (as reflected by ETX1317 MICBLI of K. pneumoniae ARC4486 vs ARC4488). […] In both models CPD infused alone mimicked vehicle control as expected with similar growth of +2 to 4 log10 CFU/mL.
(§4) Enterobacteriaceae isolates E. coli ARC2687 and K. pneumoniae isolates ARC4486, ARC4488, ARC5118, and ARC4420 were prepared for infection from an overnight plate culture. On the day of the experiment, a few colonies of bacteria were inoculated in Mueller Hinton Broth II (MHBII, Sigma-Aldrich, St. Louis, MO) and incubated at 35 °C until reaching log-phase growth, about 1 h. In hollow-fiber studies cell population density is confirmed by turbidimetric assay (OD600) and final dilution is adjusted to deliver approximately 15 mL of bacteria (1 × 10^6 CFU/mL) to the extra-capillary space of the hollow-fiber cartridge (Fibercell Systems, Inc., Frederick, MD). After 1 h, targeted drug concentrations were introduced using a 2 h infusion via a syringe pump (Harvard Apparatus, Holliston, MA). For chemostat experiments approximately 1 mL of bacteria (1 × 10^8 CFU/mL) were introduced to the chemostat reservoir bottle with 100 mL MHBII to dilute bacterial culture and reach a target CFU density of 1 × 10^6 CFU/mL. After 5 min, each chemostat bottle was exposed to targeted drug with a 2 h infusion administered via syringe pump.
(§5) ETX1317 and CPD were dissolved in MHBII (accounting for potency) and delivered as a 2 h infusion via syringe pump (Harvard Apparatus, Holliston, MA). Solubility and stability were confirmed at room temperature for the experiment. Dose formulation potency was verified by LC/MS/MS.
(§6) Dose range and dose fractionation were performed in hollow-fiber infection model (HFIM) and chemostat (one-compartment) in vitro infection model. Bacteria treated with media only (growth control) and dose arms spanning a 64-fold exposure range of drug delivered within regimens of q6h, q12h, and q24h were used. E. coli ARC2687 and K. pneumoniae ARC4486 and ARC4488 were completed in the HFIM. K. pneumoniae ARC5118 and ARC4420 were studied in the chemostat system. CPD concentrations were targeted to achieve exposure of ∼50%Time > MIC determined in the presence of ETX1317. Both CPD and ETX1317 were administered via a 2 h infusion from syringe pumps (Harvard Apparatus) to mimic the approximate Cmax following oral absorption observed clinically for CDP. […]

K. pneumoniae ARC4486 [5] = assay: as above; type: cell-based; conditions: with CPD
Method: as §3, §4, §5, §6

K. pneumoniae ARC4488 [6] = assay: as above; type: cell-based; conditions: with CPD
Method: as §3, §4, §5, §6

[7] = Stability in liver microsomes; type: in vitro ADME
Method: Based upon the non-clinical PK data, a range of 60–80% bioavailability and a moderate absorption rate of 0.5–1.0 h^–1 have been considered for humans. In consideration of these predicted parameters, mean percent fT > CT of 1 μg/mL (2× MIC of 0.5 μg/mL) estimates for a 500 mg ETX1317 equiv q12h dose of ETX0282 are summarized in Table S3.

CC1=C[C@@H](C(N)=O)N2C[C@@H]1N(O[C@H](F)C(=O)O)C2=O [ETX1317]
MIC (E. coli ARC2687 [1]): 0.5 µg/mL | MIC (E. coli ARC4419): 0.25 µg/mL | MIC (E. coli NMC101): 1 µg/mL | MIC (K. pneumoniae ARC4420): 16 µg/mL | MIC (K. pneumoniae ARC4486 [2]): 32 µg/mL | MIC (K. pneumoniae ARC4488 [3]): 0.5 µg/mL | MIC (K. pneumoniae ARC5118): 32 µg/mL | %Time > CT of 1 μg/mL for 1–log10 kill (E. coli ARC2687 [4]): 14% | %Time > CT of 1 μg/mL for stasis (E. coli ARC2687 [4]): 7% | %Time > CT of 1 μg/mL for 1–log10 kill (K. pneumoniae ARC4486 [5]): 49% | %Time > CT of 1 μg/mL for stasis (K. pneumoniae ARC4486 [5]): 37% | %Time > CT of 1 μg/mL for 1–log10 kill (K. pneumoniae ARC4488 [6]): 47% | %Time > CT of 1 μg/mL for stasis (K. pneumoniae ARC4488 [6]): 43% | stability in liver microsomes [7]: Good stability
